In US9233088B2, “Use of glutamate, glutamate derivatives or metabolites, glutamate analogues or mixtures thereof for the manufacture of a composition for the treatment of osteoporosis” (Protista Biotechnology AB, priority 2001, dated 2016):
Residues, ends and D or L forms follow the SMILES beside them.

Assays:
postmenopausal women = details: Gynecol. Endocrinol. 7:201-205 (1993); cited from earlier work
piglets [1] = experiment: Three point bending test (Instron 4302) of bones from piglets given AKG or Ala-Gln orally; type: in vivo, pig; details: for Bone ultimate strength (Wf) femur: piglets 35 days of postnatal life, 0.4 g/kg b.w. oral once a day
Method: (§1) All piglets suckled sow milk before weaning. After weaning at the age of 28 days piglets were fed ad libitum with a standard mixture Premix prestarter (PP) (Food plant-Motycz, Poland) and free access to water was allowed. Piglets were allotted to three experimental trials:
(§2) 2—Second group, receiving 0.4 g/kg/b.w. of L-alanyl-L-glutamine (ala-gln), (2 ml solution/kg b.w.)
(§3) Different parameters are used for defining and measuring the bone quality according to the invention. Used parameters are known to the skilled man in the art and are explained below: • 1) Maximum elastic strength measures the load, in Newtons (N), at […]. • 2) Ultimate strength measures the load, in Newtons (N), at […] of the bone. • 3) Cross-sectional area is the measure of the bone area on the cross section, in mm^2. • 4) Second moment of inertia is the measurement of the efficiency of the cross-sectional geometry to resist bending force, expressed in mm^4. • 5) Mean relative wall thickness is the wall thickness of the bone to its lumen. • 6) Bone mineral density (BMD) expresses the mineral content of the bone expressed in g/cm^2.
(§4) At the age of 35 days, piglets were sacrificed, eviscerated and bones were sampled.
Using Instron 4302 apparatus and applying three point bending test as presented in FIG. 1, the following properties of the bones were determined from curves showing the relation between load and deflection:
1) maximum elastic strength, Wy
4) maximum elastic deflection.

piglets [2] = experiment: Growth (bodyweight) and bone mineralisation during postnatal life of the pig; type: in vivo
Method: as §1, §2, §4

piglets [3] = experiment: Architectural and geometric properties of bones from piglets given AKG or Ala-Gln orally; type: in vivo, pig; details: piglets 35 days, 0.4 g/kg b.w. oral, mean ± SEM
Method: as §1, §2, §3, §4
Architectural and geometric properties of bone were estimated based on measurements of horizontal and vertical cross section as well as interior and exterior diameter of the bone.
Mean relative wall thickness (MRWT) expresses the ratio of wall to lumen measures and serves as an indicator in the process of architectural adaptation of bone to physiological stress during the growth of the body. When the lumen increases with unchanged wall thickness the MRWT decreases but bone resistance to strain increases.

turkeys = experiment: Ulna bone mineral density (DEXA) after fracture and neurectomy in the turkey; type: in vivo; details: group A, 0.8 g/kg oral
Description: Turkeys are kept in common cages, 10 turkeys/cage. The turkeys have free access to water and are fed ad libitum.

ovariectomized rats = experiment: Femur bone mineral density in intact, shame operated and ovariectomized osteopenic female rats given AKG in drinking water; type: in vivo, Wistar rats; details: all three groups (INT, SHO, OVX), 60 days drinking water with AKG, p<0.01 in all groups
Method: 60 female Wistar rats at the age of 2 months and with an initial bodyweight of 200 g are used.
The animals are maintained in controlled conditions of 12/12 h dark/light ratio at 22° C.±2 and at 55%±2 humidity with free access to food and water.
The rats are divided into three groups (n=20), where Group 1 is shame operated, Group 2 is ovariectomized and Group 3 is intact, i.e. not operated at all.
On the day of surgery, all rats are anaesthetised with an intramuscular injection of ketamine and xylaline.
20 of the rats are shame-operated (SHO), where the ovaries are exteriorised and replaced intact.
The second group of ovariectomized rats (OVX) are submitted to ovariectomy from a dorsal approach.
Six months after ovariectomy, the animals from group 1 and 2, are divided into two additional sub-groups; one placebo and one experimental group.
After 60 days with placebo and experimental drinking water the rats are anaesthetised in CO2 and femur isolated for further analysis of bone mineral density.

[4] = ribs 4-9, piglets 35 days, 0.4 g/kg b.w. oral, mean ± SEM

## L-glutamine calcium monofluorophospate
Postmenopausal women
  Increase in bone mineral density: 4.25%

## C[C@H](N)C(=O)N[C@@H](CCC(N)=O)C(=O)O [Ala-Gln, L-alanyl-L-glutamine] (H-Ala-Gln-OH)
Piglets [1]; mean ± SEM
  Bone ultimate strength (Wf) femur: 1075.0 ± 28.16 N
Piglets [1]; [4]
  Bone maximum elastic strength (Wy) (ribs 4-9): 442.9 ± 15.32 N
  Moment of ultimate strength ribs (4-9): 625.24 ± 1.5 ∇ N
  Ultimate strength (Wf) (ribs 4-9): 450.2 ± 22.1 N
Piglets [2]; day 14, control group always less than Ala-Gln group
  Bodyweight difference, day 14: about 690 g
Piglets [2]; day 21, control group always less than Ala-Gln group
  Bodyweight difference, day 21: about 419 g
Piglets [2]; day 35, control group always less than Ala-Gln group
  Bodyweight difference, day 35: about 313 g
Piglets [2]; day three of postnatal life, control group always less than Ala-Gln group
  Bodyweight difference, day three: about 96 g
Piglets [3]; femur
  Cross-sectional area (A) femur: 60.1 ± 2.59 * mm^2
  Second moment of inertia (Ix) femur: 492.8 ± 12.81 ∇ mm^4
Piglets [3]
  Cross-sectional area (A) humerus: 52.2 ± 2.48 * mm^2
Piglets [3]; ribs 4-9
  Cross sectional area (A) (ribs 4-9): 9.62 ± 0.33 mm^2
  Second moment of inertia (ribs 4-9): 10.88 ± 0.55 mm^4

## α-keto-glutaric sodium salt [AKG]
Piglets [1]; 5th rib, 35-days-old piglets, versus control
  Yielding stress of the 5th rib: significant increase
Piglets [1]; mean ± SEM
  Bone ultimate strength (Wf) femur: 1123.0 ± 75.09 N
turkeys; left wing control (intact), p<0.01
  BMD of the ulna bone, difference compared to the saline treated turkeys: 25%
turkeys; right wing experimental (neurectomized, fracture of the ulnae), p<0.055
  BMD of the ulna bone, AKG effect compared to the saline treated turkeys: about 11%
Ovariectomized rats
  BMD difference between the AKG treated rats and the placebo treated rats: about 10%
Piglets [3]; femur
  Cross-sectional area (A) femur: 64.7 ± 3.82 * mm^2
Piglets [3]
  Cross-sectional area (A) humerus: 52.7 ± 4.1 * mm^2
